One assay concerns the target Beta-galactosidase (Escherichia coli, UniProt Q8VNN2). Format: functional.
Assay [1] in a line: cytotoxicity in HEK-293T cells, dose response, cytotoxicity control for BCR NF-kB inhibitor project, luminescence, B-cell screen hits (AID 489021).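 Note: HEK-293T cells carrying an NF-kB luciferase reporter; cells exposed to compound for about 14 hours before viability readout.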 Format: functional, cell-based.
Assay [2] is described as follows: Shn3 3'UTR reporter inhibitors, dose response, cell-based, Clone20 osteoblasts, firefly luciferase, cherry-picked (AID 624132).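 Note: firefly luciferase luminescence from reporter carrying the Shn3 3'UTR in osteoblasts.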 Format: functional.
In another assay the test system is INS1. Description: beta cell apoptosis inhibitors, cytokine rescue, dose response, luminescence, retest (AID 449756).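 Note: cell death triggered by IL-1 beta plus TNF-alpha plus IFN-gamma mixture; protective hits raise ATP signal compared with cytokine alone wells.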 It counts as functional, cell-based. The note with it: Rattus norvegicus.
The next assay concerns the target T1, Galanin receptor type 3 (Homo sapiens, UniProt O60755).
T1 sequence (O60755 whole entry): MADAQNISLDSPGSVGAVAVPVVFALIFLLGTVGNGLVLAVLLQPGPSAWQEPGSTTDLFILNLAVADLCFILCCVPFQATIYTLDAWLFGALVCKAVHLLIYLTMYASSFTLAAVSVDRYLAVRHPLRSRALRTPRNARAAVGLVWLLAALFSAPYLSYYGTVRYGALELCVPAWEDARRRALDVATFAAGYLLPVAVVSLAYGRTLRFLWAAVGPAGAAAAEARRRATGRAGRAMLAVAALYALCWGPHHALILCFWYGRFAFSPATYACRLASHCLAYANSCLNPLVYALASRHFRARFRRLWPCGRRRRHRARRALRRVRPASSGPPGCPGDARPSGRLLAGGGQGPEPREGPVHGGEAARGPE
Description: Fluorescence-based cell-based primary high throughput dose response assay to identify antagonists of the Galanin Receptor 3 (GalR3). It counts as functional.

Assay [3] is described as follows: control 3'UTR Renilla luciferase suppression, dose response, counter-screen for Shn3 inhibitor project, cell-based, Clone20-Shn3RL, cherry-picked (AID 624133). It counts as functional. (A counterscreen serves to expose hits that act by an unwanted route or on another target.)
Assay [4] can be described thus: HepG2 cell cytotoxicity, dose response, cytotoxicity control for Shn3 inhibitor project, CellTiter-Glo, cherry-picked (AID 624134). Format: functional, cell-based. In general terms: In ATP-based viability assays light output follows the ATP content of the culture.
The next assay can be described thus: cells. Format: functional, cell-based. The following applies: HEK-CNG.
The target of a further assay is X-box-binding protein 1 (Homo sapiens, UniProt P17861). Format: functional, Cricetulus griseus.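 Note: confirmatory dose-response counter-screen serving a CHOP assay.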
Sequence of X-box-binding protein 1 (P17861 whole entry): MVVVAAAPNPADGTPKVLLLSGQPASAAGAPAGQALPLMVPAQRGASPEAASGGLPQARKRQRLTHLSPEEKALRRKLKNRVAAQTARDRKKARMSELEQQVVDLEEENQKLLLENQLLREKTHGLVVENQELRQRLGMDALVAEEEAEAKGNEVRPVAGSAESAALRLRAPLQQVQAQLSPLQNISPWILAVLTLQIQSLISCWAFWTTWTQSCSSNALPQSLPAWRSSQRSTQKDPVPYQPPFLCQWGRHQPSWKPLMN
Assay [5] deals with T2, SUMO-activating enzyme (Homo sapiens, UniProt Q9UBT2). Nature of the assay: SUMOylation inhibitor hit validation, confirmation, SUMOylation inhibitor project, biochemical, AlphaScreen (AID 2018). Format: functional. Background: Alpha assays give light when donor and acceptor beads are brought close together.
T2 sequence (Q9UBE0 whole entry): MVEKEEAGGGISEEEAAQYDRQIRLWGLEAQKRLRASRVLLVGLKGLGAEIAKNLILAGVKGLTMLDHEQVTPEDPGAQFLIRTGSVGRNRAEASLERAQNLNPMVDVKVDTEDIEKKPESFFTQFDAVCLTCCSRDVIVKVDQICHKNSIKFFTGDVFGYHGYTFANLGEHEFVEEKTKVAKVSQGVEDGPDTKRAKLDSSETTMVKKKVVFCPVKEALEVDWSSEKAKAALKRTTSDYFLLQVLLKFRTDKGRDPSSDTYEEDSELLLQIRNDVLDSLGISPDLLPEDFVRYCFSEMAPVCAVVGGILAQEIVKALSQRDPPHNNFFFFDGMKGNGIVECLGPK
T2 sequence (Q9UBT2 whole entry): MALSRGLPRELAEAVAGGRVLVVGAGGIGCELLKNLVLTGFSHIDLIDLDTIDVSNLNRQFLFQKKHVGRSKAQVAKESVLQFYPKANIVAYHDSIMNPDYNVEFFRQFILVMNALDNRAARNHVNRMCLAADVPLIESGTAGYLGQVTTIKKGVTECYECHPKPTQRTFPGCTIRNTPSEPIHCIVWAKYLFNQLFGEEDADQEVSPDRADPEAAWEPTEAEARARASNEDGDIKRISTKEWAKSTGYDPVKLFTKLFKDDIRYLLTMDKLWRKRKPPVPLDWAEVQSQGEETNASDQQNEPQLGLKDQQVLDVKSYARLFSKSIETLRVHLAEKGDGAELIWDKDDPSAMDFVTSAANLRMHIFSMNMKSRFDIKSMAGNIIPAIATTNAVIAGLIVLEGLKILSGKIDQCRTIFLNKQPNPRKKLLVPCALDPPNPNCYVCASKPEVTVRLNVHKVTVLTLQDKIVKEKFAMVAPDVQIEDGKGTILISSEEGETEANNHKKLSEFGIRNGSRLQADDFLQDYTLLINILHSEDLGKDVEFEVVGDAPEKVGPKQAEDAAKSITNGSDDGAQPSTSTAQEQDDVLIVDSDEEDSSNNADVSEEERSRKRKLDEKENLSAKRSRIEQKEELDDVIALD
In assay [6] the target is T2, SUMO-activating enzyme. Nature of the assay: inhibitors of in vitro SUMOylation cascade, primary screen, biochemical, HTRF, uHTS (AID 2006). It counts as protein-complex assay.
Assay [7] has as its target T3, Epstein-Barr nuclear antigen 1 (Epstein-Barr virus (strain B95-8) (HHV-4) (Human herpesvirus 4), UniProt P03211).
T3 sequence (P03211 whole entry): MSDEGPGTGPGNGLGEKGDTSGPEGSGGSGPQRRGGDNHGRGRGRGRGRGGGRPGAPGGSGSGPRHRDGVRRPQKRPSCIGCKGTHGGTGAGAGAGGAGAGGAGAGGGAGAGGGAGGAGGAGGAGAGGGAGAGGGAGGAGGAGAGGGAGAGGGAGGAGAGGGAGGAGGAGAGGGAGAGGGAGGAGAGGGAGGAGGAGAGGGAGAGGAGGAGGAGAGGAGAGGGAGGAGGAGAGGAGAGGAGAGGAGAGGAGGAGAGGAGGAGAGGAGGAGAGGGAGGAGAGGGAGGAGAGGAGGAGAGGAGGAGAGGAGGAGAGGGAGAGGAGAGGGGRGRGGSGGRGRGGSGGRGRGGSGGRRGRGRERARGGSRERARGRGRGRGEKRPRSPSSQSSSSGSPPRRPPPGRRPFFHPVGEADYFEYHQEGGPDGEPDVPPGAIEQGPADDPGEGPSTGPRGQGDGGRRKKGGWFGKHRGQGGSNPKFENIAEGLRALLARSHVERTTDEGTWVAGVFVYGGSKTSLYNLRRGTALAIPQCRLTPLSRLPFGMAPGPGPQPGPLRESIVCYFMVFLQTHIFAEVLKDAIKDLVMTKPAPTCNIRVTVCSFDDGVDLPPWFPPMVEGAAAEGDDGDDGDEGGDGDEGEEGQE
Nature of the assay: EBNA-1 inhibitors, dose response, biochemical, fluorescence polarization, 1536-well (AID 2381).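 Note: fluorescence polarization of a Cy5 DNA probe bound by EBNA-1 protein.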 Details: species or system human gammaherpesvirus 4.

Assay [8] addresses T4, Lytic switch protein BZLF1 (Epstein-Barr virus (strain B95-8) (HHV-4) (Human herpesvirus 4), UniProt P03206).
T4 sequence (P03206 whole entry): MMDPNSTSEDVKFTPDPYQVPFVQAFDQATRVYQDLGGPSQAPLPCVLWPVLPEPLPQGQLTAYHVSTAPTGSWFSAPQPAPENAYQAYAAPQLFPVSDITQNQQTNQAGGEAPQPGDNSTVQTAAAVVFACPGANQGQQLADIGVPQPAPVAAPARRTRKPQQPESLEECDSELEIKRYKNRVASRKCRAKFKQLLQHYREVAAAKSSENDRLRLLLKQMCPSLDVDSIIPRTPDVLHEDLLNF
Nature of the assay: EBV ZTA inhibitors, dose response, counter-screen for EBNA-1 inhibitor project, biochemical, fluorescence polarization, Epstein-Barr virus, 1536-well (AID 2377).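 Note: fluorescence polarization of Cy5-labelled ZRE DNA probe bound by purified Zta.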 Details: species or system human gammaherpesvirus 4.

In another assay the target is Cytochrome P450 3A4 (Homo sapiens, UniProt P08684). The following applies: Potency.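 Note: confirmatory qHTS run detecting inhibitors and substrates of CYP3A4.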
Sequence of Cytochrome P450 3A4 (P08684 whole entry): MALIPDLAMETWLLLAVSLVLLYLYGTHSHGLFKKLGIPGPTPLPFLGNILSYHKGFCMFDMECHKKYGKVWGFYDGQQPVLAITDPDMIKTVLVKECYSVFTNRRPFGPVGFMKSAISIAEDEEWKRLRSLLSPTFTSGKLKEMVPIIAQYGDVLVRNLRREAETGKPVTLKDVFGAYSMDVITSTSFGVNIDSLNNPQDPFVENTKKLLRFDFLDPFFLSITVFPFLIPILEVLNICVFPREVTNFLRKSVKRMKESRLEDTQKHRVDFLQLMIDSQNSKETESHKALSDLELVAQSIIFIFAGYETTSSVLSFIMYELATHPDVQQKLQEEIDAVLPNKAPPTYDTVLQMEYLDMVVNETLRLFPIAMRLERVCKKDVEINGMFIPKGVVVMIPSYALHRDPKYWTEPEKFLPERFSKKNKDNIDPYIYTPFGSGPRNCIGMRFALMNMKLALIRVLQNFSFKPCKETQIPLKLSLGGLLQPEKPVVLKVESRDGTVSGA
Another assay addresses Cytochrome P450 2C9 (Homo sapiens, UniProt P11712). The following applies: Potency.
Assay [9] has as its target T5, Endoribonuclease toxin MazF (Escherichia coli K-12, UniProt P0AE70).
T5 sequence (P0AE70 whole entry): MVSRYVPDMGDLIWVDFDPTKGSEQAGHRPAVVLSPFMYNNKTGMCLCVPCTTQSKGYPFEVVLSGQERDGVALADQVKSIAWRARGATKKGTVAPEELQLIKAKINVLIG
Nature of the assay: fluorescent RNA oligo signal without MazF, dose response, counter-screen for MazEF activator project, biochemical, fluorescence, single-stranded RNase substrate (AID 588502). It counts as functional.

Assay [10] deals with T5, Endoribonuclease toxin MazF. Nature of the assay: MazF toxin RNase activators, dose response, biochemical, fluorescence, single-stranded RNA substrate, uHTS hits (AID 588481). Format: functional.

Data on seven compounds can be found in ChEMBL document CHEMBL1201862, “PubChem BioAssay data set” (2004).

Usually EC50 stands for the concentration needed to bring the measured effect to its halfway point. As usually defined, the IC50 is the concentration needed to halve the response being measured. The term AC50 denotes the concentration at which the activity in the assay is half-maximal.

Each structure is given as a SMILES string. Activity calls are given as the source filed them. Bounds are passed on as bounds.

Sequence of Cytochrome P450 2C9 (P11712 whole entry): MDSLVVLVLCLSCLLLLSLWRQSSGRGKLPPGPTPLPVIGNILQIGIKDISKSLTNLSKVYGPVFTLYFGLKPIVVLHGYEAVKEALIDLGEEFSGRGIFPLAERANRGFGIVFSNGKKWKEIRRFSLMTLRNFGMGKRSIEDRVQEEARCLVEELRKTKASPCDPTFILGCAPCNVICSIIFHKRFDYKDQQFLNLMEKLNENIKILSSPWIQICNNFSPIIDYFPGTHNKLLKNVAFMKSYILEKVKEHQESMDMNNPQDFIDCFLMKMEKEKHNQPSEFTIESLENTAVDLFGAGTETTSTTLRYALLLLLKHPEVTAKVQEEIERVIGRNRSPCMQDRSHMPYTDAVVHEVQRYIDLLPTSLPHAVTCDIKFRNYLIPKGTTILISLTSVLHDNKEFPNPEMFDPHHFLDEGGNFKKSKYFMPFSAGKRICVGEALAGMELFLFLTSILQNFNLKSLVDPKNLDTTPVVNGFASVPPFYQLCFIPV
Sequence of Beta-galactosidase (Q8VNN2 whole entry): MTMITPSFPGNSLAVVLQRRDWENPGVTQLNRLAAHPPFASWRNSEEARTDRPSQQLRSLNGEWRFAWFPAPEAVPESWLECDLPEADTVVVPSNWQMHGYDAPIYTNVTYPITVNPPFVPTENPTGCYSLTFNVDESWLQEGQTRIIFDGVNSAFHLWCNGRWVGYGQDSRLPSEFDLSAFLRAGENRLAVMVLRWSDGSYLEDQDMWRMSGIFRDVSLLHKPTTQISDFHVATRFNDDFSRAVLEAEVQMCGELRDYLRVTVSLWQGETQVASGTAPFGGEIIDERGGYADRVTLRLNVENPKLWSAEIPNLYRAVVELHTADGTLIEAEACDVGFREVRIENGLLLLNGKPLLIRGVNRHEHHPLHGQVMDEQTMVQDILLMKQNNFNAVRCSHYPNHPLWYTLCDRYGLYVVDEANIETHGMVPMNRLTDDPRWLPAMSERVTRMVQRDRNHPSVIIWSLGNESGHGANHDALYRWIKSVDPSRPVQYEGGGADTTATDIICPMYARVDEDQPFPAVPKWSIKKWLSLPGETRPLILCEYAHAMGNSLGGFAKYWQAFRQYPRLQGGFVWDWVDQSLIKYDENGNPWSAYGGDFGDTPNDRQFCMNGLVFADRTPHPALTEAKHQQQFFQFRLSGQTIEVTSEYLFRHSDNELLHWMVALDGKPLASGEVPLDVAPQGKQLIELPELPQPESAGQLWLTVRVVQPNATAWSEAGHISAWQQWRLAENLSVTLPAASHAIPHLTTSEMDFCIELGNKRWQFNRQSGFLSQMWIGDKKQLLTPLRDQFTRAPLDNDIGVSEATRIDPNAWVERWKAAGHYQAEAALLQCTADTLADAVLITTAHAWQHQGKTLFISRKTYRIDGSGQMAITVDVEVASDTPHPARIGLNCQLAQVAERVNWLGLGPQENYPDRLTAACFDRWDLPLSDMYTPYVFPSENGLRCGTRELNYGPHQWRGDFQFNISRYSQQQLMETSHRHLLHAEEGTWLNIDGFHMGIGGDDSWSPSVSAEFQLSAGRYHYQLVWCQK

As for `C=C1CC[C@@]2(O)[C@H]3Cc4ccc(O)c5c4[C@@]2(CCN3CC2CC2)[C@H]1O5`, the EC50 at Beta-galactosidase is > 31.5 µM (inactive).
On to `CC(C)(C)c1ccc(-n2ncc3c2CCCC3NC(=O)C2(C(N)=O)CC2)cc1` (stereo not given), for which the IC50 is > 80 µM (inactive) in assay [1] and 0.408 µM (active) at Galanin receptor type 3. Besides, the AC50 in [2] is 0.589 µM (active); in the assay with INS1, 4.11 µM (active); in [3], 13.4 µM (active); in [4], 0.807 µM (active). In addition, the EC50 in “cells” is > 29.9 µM (inactive).
Turning to `COc1ccccc1C(=O)Oc1ccc(C(C)C)cc1`, the “Absolute IC50 (XBP1)” value on X-box-binding protein 1 turned out to be 10 µM.
Consider `O=[N+]([O-])c1ccccc1/C=C/C=N/n1c(S)nnc1-c1cc(-c2ccccc2)[nH]n1`, for which the values for the IC50 at SUMO-activating enzyme [5] and on SUMO-activating enzyme [6] were 10.3 µM (active) and 26.8 µM (active), respectively.
As to `Cn1c(=O)n(C)c2cc(/C=C3/NC(=O)N(Cc4ccccc4)C3=O)ccc21`, the IC50 in assay [7] was 11.2 µM (not active); in assay [1], > 80 µM (inactive); in assay [8], > 111 µM (not active).
Take `N[C@@H](Cc1cc(O)c(O)cc1O)C(=O)O`: the AC50 is 15.8 µM (inconclusive) at Cytochrome P450 3A4 and 39.8 µM (inconclusive) at Cytochrome P450 2C9.
Take `O=C1NC(=O)C(=Cc2c[nH]c3ccc(OCc4ccccc4)cc23)C(=O)N1`: the EC50 in assay [9] and in [10] was > 99 µM (inactive) in each case. Besides, the IC50 at SUMO-activating enzyme [5] is 20.9 µM (active); on SUMO-activating enzyme [6] it was 11 µM (active).
